Molecular target: T1, Human Recombinant Matriptase 2 (Homo sapiens, UniProt Q8IU80)
T1 construct: purchased Enzo Life Sciences (an in-house preparation was also used) ALX-201-752-1
T1 sequence (Q8IU80 1-811): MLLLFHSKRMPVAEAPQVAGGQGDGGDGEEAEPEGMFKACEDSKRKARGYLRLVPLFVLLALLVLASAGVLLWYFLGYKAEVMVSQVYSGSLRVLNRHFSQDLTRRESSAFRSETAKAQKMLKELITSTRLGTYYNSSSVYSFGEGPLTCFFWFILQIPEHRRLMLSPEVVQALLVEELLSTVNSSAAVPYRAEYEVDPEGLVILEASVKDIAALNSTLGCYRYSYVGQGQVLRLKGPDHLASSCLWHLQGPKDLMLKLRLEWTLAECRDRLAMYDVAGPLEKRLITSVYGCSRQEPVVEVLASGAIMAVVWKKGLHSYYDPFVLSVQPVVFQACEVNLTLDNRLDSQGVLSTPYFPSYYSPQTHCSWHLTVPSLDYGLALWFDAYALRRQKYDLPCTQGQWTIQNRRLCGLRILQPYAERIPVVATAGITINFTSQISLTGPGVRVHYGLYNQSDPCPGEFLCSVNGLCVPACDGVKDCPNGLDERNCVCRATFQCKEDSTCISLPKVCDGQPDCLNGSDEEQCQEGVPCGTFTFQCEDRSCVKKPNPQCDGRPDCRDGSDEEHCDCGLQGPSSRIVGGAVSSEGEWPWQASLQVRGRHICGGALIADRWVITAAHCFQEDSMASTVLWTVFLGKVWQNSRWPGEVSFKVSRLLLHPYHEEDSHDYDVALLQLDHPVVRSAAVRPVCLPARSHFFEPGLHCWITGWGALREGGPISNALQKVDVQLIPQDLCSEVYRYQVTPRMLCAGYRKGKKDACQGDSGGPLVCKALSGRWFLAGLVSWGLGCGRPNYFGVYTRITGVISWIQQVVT
Assay: Matriptase 2 fluorescence based inhibition assay, Method A (100 mM TRIS pH 9, 1 mg/mL BSA)
Format: biochemical
Settings: 1 uM compound; Assay Used = A; read-out: Mar-2 % inhibition at 1 uM
Procedure, shortened: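 At 25° C in 100 mM TRIS pH 9 with 1 mg/mL BSA and 1% DMSO, compounds were preincubated 30 min with 7 nM commercial or 15 nM in-house protein before adding 100 μM Boc-Gln-Ala-Arg-7-amido-4-methyl coumarin. Fluorescence at 360/480 nm after 60 min; single points at 1 and 10 μM, IC50 by variable-slope nonlinear regression.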

For `N=C(N)c1ccc2cc(C(=O)N[C@H]3CC[C@H](N)CC3)n(S(=O)(=O)c3ccc4ccccc4c3)c2c1` [Compound I-397], the inhibition at 1 µM was 25 to 50%.

Same assay, conditions: 1 uM; Assay Used A; read-out: Mar-2 % inhibition at 1 uM

`CCOC(=O)Nc1c(C(=O)NC2CCC(N)CC2)n(CCS(=O)(=O)c2ccccc2)c2cc(/C(N)=N/O)ccc12` (stereo not shown) [Compound I-57, Ethyl (2-(((1r,4r)-4-aminocyclohexyl)carbamoyl)-6-((Z)—N′-hydroxycarbamimidoyl)-1-(2-(phenylsulfonyl)ethyl)-1H-indol-3-yl)carbamate] and `N=C(N)c1ccc2c(N)c(C(=O)NCC3CCCCC3)n(CCS(=O)(=O)c3ccccc3)c2c1` [Compound I-58, 3-Amino-6-carbamimidoyl-N-(cyclohexylmethyl)-1-(2-(phenylsulfonyl)ethyl)-1H-indole-2-carboxamide] fall in the same range of inhibition at 1 µM: 0 to 25% for the first, 0 to 25% for the second.

`C=CCOc1cccc(NC(=O)c2cc3ccc(C(=N)N)cc3n2Cc2ccc(C(N)=O)cc2)c1` [Compound I-139] and `N=C(N)c1ccc2cc(C(=O)Nc3cccc(F)c3)n(Cc3ccc(C(N)=O)cc3)c2c1` [Compound I-62] fall in the same range of inhibition at 1 µM: 0 to 25% for the first, 0 to 25% for the second.

Compared with `N=C(N)c1ccc2cc(C(=O)Nc3ccc(N4CCCC4)cc3)n(CCS(=O)(=O)c3ccccc3)c2c1` [Compound I-44], `N=C(N)c1ccc2cc(C(=O)Nc3ccc(CN4CCCC4)cc3)n(Cc3ccc(C(N)=O)cc3)c2c1` [Compound I-114] is higher in inhibition at 1 µM: 0 to 25% for the first, 25 to 50% for the second.

`N=C(N)c1ccc2cc(C(=O)Nc3cccc(-c4cnco4)c3)n(Cc3ccc(C(N)=O)cc3)c2c1` [Compound I-163] and `N=C(N)c1ccc2cc(C(=O)Nc3cccc(-c4ccccc4)c3)n(Cc3ccc(C(N)=O)cc3)c2c1` [Compound I-151] fall in the same range of inhibition at 1 µM: 0 to 25% for the first, 0 to 25% for the second.

`Cc1ccc(NC(=O)c2cc3ccc(C(=N)N)cc3n2Cc2ccc(C(N)=O)cc2)cc1O` [Compound I-71] gave an inhibition at 1 µM of 0 to 25%.

Same assay, conditions: at 1 uM; Assay Used = A; read-out: Mar-2 % inhibition at 1 uM

`N=C(N)c1ccc2cc(C(=O)N3CCC(F)(F)CC3)n(Cc3ccc(C(F)(F)F)cc3)c2c1` [Compound I-283] and `N=C(N)c1ccc2cc(C(=O)N3CCC(CCCC(N)=O)CC3)n(Cc3ccc(C(F)(F)F)cc3)c2c1` [Compound I-322] fall in the same range of inhibition at 1 µM: 0 to 25% for the first, 0 to 25% for the second.

`N=C(N)c1ccc2c(Cl)c(C(=O)NCC3CCCCC3)n(Cc3ccc(C(N)=O)cc3)c2c1` [Compound I-213, 6-Carbamimidoyl-1-(4-carbamoylbenzyl)-3-chloro-N-(cyclohexylmethyl)-1H-indole-2-carboxamide] and `N=C(N)c1ccc2cc(C(=O)N3CCC[C@H](CF)C3)n(Cc3ccc(C(N)=O)cc3)c2c1` [Compound I-332] fall in the same range of inhibition at 1 µM: 0 to 25% for the first, 0 to 25% for the second.

`CC[C@@H](CO)NC(=O)c1cc2ccc(C(=N)N)cc2n1Cc1ccc(C(N)=O)cc1` [Compound I-209] and `CCNC(=O)c1ccc(Cn2c(C(=O)NC3CCC(C)CC3)cc3ccc(C(=N)N)cc32)cc1` (stereo not shown) [Compound I-221, 6-Carbamimidoyl-1-(4-(ethylcarbamoyl)benzyl)-N-(4-methylcyclohexyl)-1H-indole-2-carboxamide] fall in the same range of inhibition at 1 µM: 0 to 25% for the first, 0 to 25% for the second.

`CCOC(=O)c1ccc(Cn2c(C(=O)N3CCC(CCN)CC3)c(N)c3ccc(C(=N)N)cc32)cc1` [Compound I-346] and `CN(C)C(=O)c1ccc(Cn2c(C(=O)N3CCC(F)CC3)cc3ccc(C(=N)N)cc32)cc1` [Compound I-389] fall in the same range of inhibition at 1 µM: 0 to 25% for the first, 0 to 25% for the second.

First: N=C(N)NCCC1CCN(C(=O)c2cc3ccc(C(=N)N)cc3n2Cc2ccc3ccccc3c2)CC1 [Compound I-360]
Second: N=C(N)c1ccc2cc(C(=O)N3CCC(C(=O)NCCN)CC3)n(CCc3ccccc3)c2c1 [Compound I-357]
The inhibition at 1 µM of the first is higher: 25 to 50% for the first, 0 to 25% for the second.

`N=C(N)c1ccc2cc(C(=O)N3CCC(F)C3)n(Cc3cccc(C(N)=O)c3)c2c1` (stereo not shown) [Compound I-323, 3-((6-Carbamimidoyl-2-(3-fluoropyrrolidine-1-carbonyl)-1H-indol-1-yl)methyl)benzamide] and `CC(C)c1ccc(Cn2c(C(=O)N3CCC(F)(F)C3)cc3ccc(C(=N)N)cc32)cc1` [Compound I-294] fall in the same range of inhibition at 1 µM: 0 to 25% for the first, 0 to 25% for the second.
